Measured values reported in patent publication US7569547B2, “Inhibiting furin with polybasic peptides” (Board of Supervisors of Louisiana State University and …, priority 2001, dated 2009).
*: point of attachment. CH2Cl = ClC*

Tests used:
PC1 [1] = molecular target: T1, PC1 (Homo sapiens, UniProt P29120); settings: literature; cited from earlier work
T1 sequence (P29120 111-753): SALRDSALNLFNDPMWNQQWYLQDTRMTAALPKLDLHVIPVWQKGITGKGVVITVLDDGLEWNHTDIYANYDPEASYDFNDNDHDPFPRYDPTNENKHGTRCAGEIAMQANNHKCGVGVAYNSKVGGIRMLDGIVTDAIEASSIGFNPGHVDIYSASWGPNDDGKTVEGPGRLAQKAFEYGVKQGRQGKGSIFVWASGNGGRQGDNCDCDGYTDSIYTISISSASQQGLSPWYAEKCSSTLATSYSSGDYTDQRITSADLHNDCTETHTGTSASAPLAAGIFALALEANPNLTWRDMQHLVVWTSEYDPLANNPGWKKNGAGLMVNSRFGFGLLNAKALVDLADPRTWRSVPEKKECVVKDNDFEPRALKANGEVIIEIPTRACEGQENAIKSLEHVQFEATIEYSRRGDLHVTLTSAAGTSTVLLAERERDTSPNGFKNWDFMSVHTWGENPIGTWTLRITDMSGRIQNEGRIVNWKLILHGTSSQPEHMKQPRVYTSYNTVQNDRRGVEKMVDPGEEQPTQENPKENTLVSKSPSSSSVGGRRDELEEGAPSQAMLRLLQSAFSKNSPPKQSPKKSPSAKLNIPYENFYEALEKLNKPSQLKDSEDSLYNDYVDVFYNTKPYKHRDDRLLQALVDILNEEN

PC2 = molecular target: T2, PC2 (Mus musculus, UniProt P21661); test: PC2 enzyme assay, hydrolysis of pERTKR-MCA at pH 5.0; type: biochemical; set-up: made in house
T2 sequence (P21661 109-637): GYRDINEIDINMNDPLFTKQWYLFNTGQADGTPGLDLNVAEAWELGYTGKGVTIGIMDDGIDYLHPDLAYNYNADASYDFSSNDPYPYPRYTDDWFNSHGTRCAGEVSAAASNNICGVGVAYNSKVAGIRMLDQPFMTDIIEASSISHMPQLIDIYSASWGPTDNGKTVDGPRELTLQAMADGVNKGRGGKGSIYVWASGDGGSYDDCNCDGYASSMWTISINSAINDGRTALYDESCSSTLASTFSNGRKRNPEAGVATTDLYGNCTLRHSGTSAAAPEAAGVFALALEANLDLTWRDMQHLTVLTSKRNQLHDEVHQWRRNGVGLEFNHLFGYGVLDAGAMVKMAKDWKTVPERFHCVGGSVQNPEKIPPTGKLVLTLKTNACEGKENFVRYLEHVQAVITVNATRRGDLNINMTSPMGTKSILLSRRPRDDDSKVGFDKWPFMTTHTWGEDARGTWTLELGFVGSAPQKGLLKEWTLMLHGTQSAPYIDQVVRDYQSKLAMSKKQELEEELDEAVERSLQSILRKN
Procedure: (§1) The proprotein convertases PC1 and PC2 were prepared by ion exchange chromatography as described in G. Frenette et al., Biochim. Biophys. Acta., vol. 1334, pp. 109-115 (1997).
(§2) Enzyme Assays and Hexapeptide Library Screening. Enzyme assays for PC1 and PC2 were performed at pH 5.0 using pERTKR-MCA (Peptides International Inc., Louisville, Ky.) as described in E. Apletalina et al., J. Biol. Chem., vol. 273, pp. 26589-26595 (1998). The assay for furin was performed using the same substrate at pH 7.0 in 100 mM HEPES, 5 mM CaCl2, 0.1% Brij 35. All assays were performed at 37° C. in a 96 well fluorometer (Labsystems) at an excitation wavelength of 380 nm with emission monitored at a wavelength of 460 nm. The total volume was 50 μL. Unless otherwise stated, the final substrate concentration for all assays was 200 μM. When used in a particular experiment, the inhibitory peptides were pre-incubated with enzyme for 30 min at room temperature prior to addition of substrate. All assays were performed in duplicate or triplicate.

recombinant mouse furin = molecular target: T3, recombinant mouse furin (Mus musculus, UniProt P23188); test: Furin enzyme assay, hydrolysis of pERTKR-MCA at pH 7.0; type: biochemical
T3 construct: truncated N-terminally to the transmembrane domain at His^711 using PCR; myc (C, cleaved yes); hexa-His (C, cleaved yes); made in house; host or cells: DG44 CHO cells, conditioned medium
Excerpt: Recombinant convertase preparation. The mouse furin clone was a kind gift from K. Nakayama (Fukuoka University School of Medicine, Fukuoka, Japan). The mouse furin cDNA was truncated N-terminally to the transmembrane domain at His^711 using PCR. This PCR product was then subcloned into pcDNA3.1 (−) myc-His (Invitrogen) at the Nhe1 and Xba1 restriction sites. Dihydrofolate-reductase-negative DG44 Chinese Hamster Ovary (CHO) cells (L. Chasin, Columbia University, New York, N.Y.) were transfected using Lipofectin (Life Technologies), and colonies were selected at 37° C. in 5% CO2 in α-MEM (lacking nucleosides) containing 10% well-dialyzed fetal bovine serum (Life Technologies). Conditioned media from colonies were screened using an enzyme assay (see below), and a high-expressing clone was selected. Overexpression of furin was achieved by increasing the methotrexate concentration from 5 nM to 50 μM in five- to ten-fold steps as described in I. Lindberg et al., Methods Neurosci., vol. 23, pp. 94-108 (1995). The amplified lines were tested for increased furin expression by enzyme assay. Once the 50 μM methotrexate level had been reached, cells were split at ratios of 1:6 twice a week. 100 mL of conditioned media (OptiMEM, Life Technologies) containing 100 μg/mL aprotinin (Miles Laboratories, Kankakee, Ill.) was collected from confluent roller bottles every 24 h. The medium was then centrifuged at low speed to remove cells, and the supernatant was stored at −80° C. until use.
Purification of furin: Conditioned medium was thawed, pooled, and diluted 1:3.5 with buffer A (20 mM HEPES, 0.1% Brij 35, 5 mM CaCl2, pH 7.4), and pumped at 40 mL/min through a Sartorius D100 anion exchange membrane. The membrane was washed with 40 mL of buffer A, followed by 40 mL of buffer A containing 50 mM NaCl, and finally by 40 mL of buffer A containing 200 mM NaCl. The fraction eluting with 200 mM NaCl was diluted 1:4 with buffer A and applied to a 1 mL Pharmacia Mono Q HR5/5 anion exchange column at a flow rate of 1 mL/min. Following a 10 mL wash with buffer A, furin was eluted by a linear increase of 0 to 500 mM NaCl in buffer A over 30 mL; and 2 mL fractions were collected. Fractions containing peak activity were pooled, and 200 μL aliquots were subjected to gel permeation chromatography using a Pharmacia Superose 12 column at a flow rate of 0.5 mL/min of buffer A containing 200 mM NaCl. Fractions were assayed for activity as described below; protein content was determined using the Bradford method. All purification steps were performed at 4° C.
as §2

furin = furin (Homo sapiens, UniProt P09958); settings: literature, cited from earlier work
PC1 [2] = molecular target: T4, PC1 (Mus musculus, UniProt P63239); test: biochemical; type: biochemical
T4 construct: made in house
T4 sequence (P63239 111-753): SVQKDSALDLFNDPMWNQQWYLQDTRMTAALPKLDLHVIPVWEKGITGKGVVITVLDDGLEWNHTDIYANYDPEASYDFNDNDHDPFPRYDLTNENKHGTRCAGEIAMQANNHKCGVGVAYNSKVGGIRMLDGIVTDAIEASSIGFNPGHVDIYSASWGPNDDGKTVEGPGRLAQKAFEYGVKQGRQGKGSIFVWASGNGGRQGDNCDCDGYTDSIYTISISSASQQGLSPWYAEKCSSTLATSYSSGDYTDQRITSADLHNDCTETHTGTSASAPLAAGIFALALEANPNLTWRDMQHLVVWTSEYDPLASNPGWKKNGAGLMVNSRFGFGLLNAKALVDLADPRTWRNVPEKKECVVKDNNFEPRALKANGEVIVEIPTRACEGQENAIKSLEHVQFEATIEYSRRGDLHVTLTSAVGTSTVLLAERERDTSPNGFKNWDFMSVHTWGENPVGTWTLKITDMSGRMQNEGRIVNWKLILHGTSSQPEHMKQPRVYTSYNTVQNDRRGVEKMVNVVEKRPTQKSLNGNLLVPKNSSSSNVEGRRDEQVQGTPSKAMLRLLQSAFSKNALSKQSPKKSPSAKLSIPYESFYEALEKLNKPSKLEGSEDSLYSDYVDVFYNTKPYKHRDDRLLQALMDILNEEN
Procedure: as §1, §2

PACE4 = molecular target: T5, PACE4 (Rattus norvegicus, UniProt Q63415); test: PACE4 enzyme assay, hydrolysis of pERTKR-MCA; type: biochemical
T5 construct: made in house; host or cells: stably transfected hEK-293 cells (gift of R. E. Mains), conditioned medium
T5 sequence (Q63415 133-937): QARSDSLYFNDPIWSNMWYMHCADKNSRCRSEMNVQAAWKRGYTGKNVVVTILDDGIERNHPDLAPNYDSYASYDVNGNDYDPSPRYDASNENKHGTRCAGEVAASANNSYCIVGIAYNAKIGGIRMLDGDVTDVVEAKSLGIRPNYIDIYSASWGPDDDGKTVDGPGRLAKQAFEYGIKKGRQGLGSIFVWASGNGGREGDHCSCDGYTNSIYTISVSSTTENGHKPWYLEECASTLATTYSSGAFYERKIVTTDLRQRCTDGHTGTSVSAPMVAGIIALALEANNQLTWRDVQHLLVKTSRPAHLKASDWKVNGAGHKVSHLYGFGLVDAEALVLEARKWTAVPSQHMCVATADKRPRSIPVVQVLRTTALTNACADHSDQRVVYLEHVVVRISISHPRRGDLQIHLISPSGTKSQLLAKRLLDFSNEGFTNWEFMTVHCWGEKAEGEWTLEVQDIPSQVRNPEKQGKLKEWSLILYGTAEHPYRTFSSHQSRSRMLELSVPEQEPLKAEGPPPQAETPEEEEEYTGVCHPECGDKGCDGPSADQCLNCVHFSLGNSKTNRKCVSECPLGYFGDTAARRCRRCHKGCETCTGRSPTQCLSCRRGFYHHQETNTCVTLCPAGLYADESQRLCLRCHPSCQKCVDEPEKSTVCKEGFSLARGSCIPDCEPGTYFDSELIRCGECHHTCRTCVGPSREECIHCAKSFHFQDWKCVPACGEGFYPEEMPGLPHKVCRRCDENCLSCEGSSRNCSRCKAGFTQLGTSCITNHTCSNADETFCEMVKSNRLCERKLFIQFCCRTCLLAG
Procedure: The proprotein convertase PACE4 was partially purified from an overnight-conditioned medium of stably transfected hEK-293 human embryonic kidney cells (a generous gift of R. E. Mains, Johns Hopkins University School of Medicine, Baltimore, Md.). Briefly, 100 mL of conditioned medium (OptiMEM containing 100 μg/mL aprotinin) was loaded onto an Econo-Pac Q (Bio-Rad) column at 4 mL/min, washed with 10 mL of buffer A, and then eluted with a linear gradient of buffer A containing 500 mM NaCl over 50 mL. The active fractions were then diluted 1:4 with buffer A prior to loading onto a Mono Q column (Pharmacia) at 1 mL/min. The PACE4 was eluted with a linear gradient of buffer A containing 500 mM NaCl over 10 mL. The resulting active fractions were then pooled and stored at −80° C. until use.
as §2

Sequence of furin (P09958 108-794): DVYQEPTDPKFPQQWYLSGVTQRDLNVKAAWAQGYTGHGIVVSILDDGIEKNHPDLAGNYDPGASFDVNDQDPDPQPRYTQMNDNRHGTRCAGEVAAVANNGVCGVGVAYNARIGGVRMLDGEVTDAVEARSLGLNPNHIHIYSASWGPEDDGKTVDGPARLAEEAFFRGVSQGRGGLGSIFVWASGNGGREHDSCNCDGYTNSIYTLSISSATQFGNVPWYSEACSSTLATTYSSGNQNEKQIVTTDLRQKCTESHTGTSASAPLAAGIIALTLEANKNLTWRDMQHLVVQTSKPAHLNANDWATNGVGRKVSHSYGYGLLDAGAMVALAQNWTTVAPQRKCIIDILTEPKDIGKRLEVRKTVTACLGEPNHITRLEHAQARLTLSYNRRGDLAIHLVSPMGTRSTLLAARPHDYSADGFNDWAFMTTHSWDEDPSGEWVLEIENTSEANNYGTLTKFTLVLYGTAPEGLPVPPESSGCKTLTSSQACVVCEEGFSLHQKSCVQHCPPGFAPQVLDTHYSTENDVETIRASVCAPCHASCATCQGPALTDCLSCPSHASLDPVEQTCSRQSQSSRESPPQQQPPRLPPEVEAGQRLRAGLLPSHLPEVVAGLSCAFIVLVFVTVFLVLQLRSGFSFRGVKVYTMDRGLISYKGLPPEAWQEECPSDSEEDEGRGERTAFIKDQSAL
T3 sequence (P23188 108-714 limits assumed): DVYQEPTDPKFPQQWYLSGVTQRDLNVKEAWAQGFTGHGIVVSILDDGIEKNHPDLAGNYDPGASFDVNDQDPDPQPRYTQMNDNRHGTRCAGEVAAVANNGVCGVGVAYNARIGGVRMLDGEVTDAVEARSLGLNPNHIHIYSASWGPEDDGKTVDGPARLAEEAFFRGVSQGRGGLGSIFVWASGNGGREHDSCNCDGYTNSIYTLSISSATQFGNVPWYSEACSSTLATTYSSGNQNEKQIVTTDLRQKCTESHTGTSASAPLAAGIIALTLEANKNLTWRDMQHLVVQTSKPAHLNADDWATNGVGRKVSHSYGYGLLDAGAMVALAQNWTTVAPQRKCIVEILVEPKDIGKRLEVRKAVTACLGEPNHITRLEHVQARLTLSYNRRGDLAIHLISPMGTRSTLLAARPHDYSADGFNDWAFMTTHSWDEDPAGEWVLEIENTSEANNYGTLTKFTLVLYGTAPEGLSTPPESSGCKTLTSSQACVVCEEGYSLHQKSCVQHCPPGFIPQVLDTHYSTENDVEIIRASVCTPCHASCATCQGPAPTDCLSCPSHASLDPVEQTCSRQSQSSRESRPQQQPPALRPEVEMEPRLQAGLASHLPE

Compound: CC(=O)N[C@@H](CC(C)C)C(=O)N[C@@H](CC(C)C)C(=O)N[C@@H](CCCNC(=N)N)C(=O)N[C@H](C(=O)N[C@@H](CCCCN)C(=O)N[C@@H](CCCNC(=N)N)C(N)=O)C(C)C [Ac-LLRVKR-NH2]
- Ki / inhibition of PC1, in words (PC1 [1]): nanomolar inhibitor
- Ki (PC2): 1000 ± 80 nM
- Ki (recombinant mouse furin): 3400 ± 100 nM

Compound: decanoyl-RVKR-CH2-AVG-NH2
- Ki (furin; read-out: Ki against furin): 3.4 nM

Compound: Ac-YEKERSKR-CH2Cl (SMILES CC(=O)N[C@@H](Cc1ccc(O)cc1)C(=O)N[C@@H](CCC(=O)O)C(=O)N[C@@H](CCCCN)C(=O)N[C@@H](CCC(=O)O)C(=O)N[C@@H](CCCNC(=N)N)C(=O)N[C@@H](CO)C(=O)N[C@@H](CCCCN)C(=O)N[C@@H](CCCNC(=N)N)C(=O)CCl) [reference compound]
- Ki / inhibition of PC1, in words (PC1 [1]): low nM
- Ki against furin, in words (furin): low nM

Compound: N=C(N)NCCC[C@H](NC(=O)[C@H](CCCNC(=N)N)NC(=O)[C@H](CCCNC(=N)N)NC(=O)[C@H](CCCNC(=N)N)NC(=O)[C@H](CCCNC(=N)N)NC(=O)[C@H](CCCNC(=N)N)NC(=O)[C@H](CCCNC(=N)N)NC(=O)[C@@H](N)CCCNC(=N)N)C(=O)O [Octa-L-arginine]
- Ki (PC1 [2]): 5100 ± 2000 nM
- Ki (PACE4): 150 ± 60 nM

Compound: α1-PDX: α1-antitrypsin variant with reactive site loop bioengineered to contain a minimal furin consensus sequence [reference compound]
- inhibition of furin (furin): sub-nanomolar range
- inhibition of furin (recombinant mouse furin; nanomolar α1-PDX concentrations, validation of enzyme preparation): strongly inhibited
